Laboratory results from PubChem BioAssay AID330 (DTP/NCI, 2004).
Several values for one entry are separate records, joined by “and”; a condition that tells them apart may be missing. Equal values may be shown once. Toxic doses and inconclusive results are not listed.

System: P388 leukemia ip, CD2F1 mice, survival T/C
Assay: NCI In Vivo Anticancer Drug Screen. Data for tumor model P388 Leukemia (intraperitoneal) in CD2F1 (CDF1) mice
Conditions: endpoint: median survival time, higher = longer survival
Summary of the method: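 Mice carrying the transplanted tumor received test compound or vehicle. Survival was recorded in each group, and the value is the treated-group measurement divided by that of the vehicle-treated control group.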

[1] = dose: 60.0 mg/kg/injection, schedule: Q01DX005 (ip), vehicle: saline with Tween-80
[2] = dose: 120.0 mg/kg/injection, schedule: Q01DX005 (ip), vehicle: saline with Tween-80
[3] = dose: 50.0 mg/kg/injection, schedule: Q01DX009 (ip), vehicle: saline with Tween-80
[4] = dose: 100.0 mg/kg/injection, schedule: Q01DX009 (ip), vehicle: saline with Tween-80
[5] = dose: 200.0 mg/kg/injection, schedule: Q01DX009 (ip), vehicle: saline with Tween-80
[6] = dose: 50.0 mg/kg/injection, schedule: Q01DX005 (ip), vehicle: saline with Tween-80
[7] = dose: 100.0 mg/kg/injection, schedule: Q01DX005 (ip), vehicle: saline with Tween-80
[8] = dose: 200.0 mg/kg/injection, schedule: Q01DX005 (ip), vehicle: saline with Tween-80
[9] = dose: 25.0 mg/kg/injection, schedule: Q01DX009 (ip), vehicle: saline with Tween-80

CCOC(=O)c1nc(Cl)nc(Cl)c1I
T/C (dose: 3.13 mg/kg/injection, schedule: Q01DX009 (ip), vehicle: distilled water + Tween-80): 99 % of control
T/C (dose: 6.25 mg/kg/injection, schedule: Q01DX009 (ip), vehicle: distilled water + Tween-80): 110 % of control
T/C (dose: 12.5 mg/kg/injection, schedule: Q01DX009 (ip), vehicle: distilled water + Tween-80): 112 % of control and 123 % of control
T/C (dose: 25.0 mg/kg/injection, schedule: Q01DX009 (ip), vehicle: distilled water + Tween-80): 101 % of control and 112 % of control
T/C (dose: 50.0 mg/kg/injection, schedule: Q01DX009 (ip), vehicle: distilled water + Tween-80): 90 % of control

O=P(N1CC=CCC1)(N1CC1)N1CC1
T/C (dose: 4.4 mg/kg/injection, schedule: Q04DX003 (ip), vehicle: saline): 118 % of control
T/C (dose: 5.56 mg/kg/injection, schedule: Q01DX009 (ip), vehicle: saline): 154 % of control
T/C (dose: 6.6 mg/kg/injection, schedule: Q04DX003 (ip), vehicle: saline): 113 % of control
T/C (dose: 8.33 mg/kg/injection, schedule: Q01DX009 (ip), vehicle: saline): 209 % of control
T/C (dose: 10.0 mg/kg/injection, schedule: Q04DX003 (ip), vehicle: saline): 118 % of control

COc1ccc(C23OCCN2C(=O)c2ccccc23)cc1 (centres undefined)
T/C (dose: 60.0 mg/kg/injection, schedule: Q01DX005 (ip), vehicle: saline + Tween-80 + alcohol): 99 % of control
T/C (dose: 120.0 mg/kg/injection, schedule: Q01DX005 (ip), vehicle: saline + Tween-80 + alcohol): 100 % of control
T/C (dose: 240.0 mg/kg/injection, schedule: Q01DX005 (ip), vehicle: saline + Tween-80 + alcohol): 101 % of control

CCCCCc1c(C)[nH]n(C(N)=NCCSCc2nc[nH]c2C)c1=O
T/C (dose: 60.0 mg/kg/injection, schedule: Q01DX005 (ip), vehicle: Klucel (hydroxypropylcellulose) (HPC)): 100 % of control
T/C (dose: 120.0 mg/kg/injection, schedule: Q01DX005 (ip), vehicle: Klucel (hydroxypropylcellulose) (HPC)): 102 % of control
T/C (dose: 240.0 mg/kg/injection, schedule: Q01DX005 (ip), vehicle: Klucel (hydroxypropylcellulose) (HPC)): 91 % of control

CNc1cc(=O)[nH]c(-c2ccccc2)n1
T/C (dose: 45.0 mg/kg/injection, schedule: Q01DX009 (ip), vehicle: saline with Tween-80): 89 % of control
T/C (dose: 90.0 mg/kg/injection, schedule: Q01DX009 (ip), vehicle: saline with Tween-80): 97 % of control
T/C (dose: 180.0 mg/kg/injection, schedule: Q01DX009 (ip), vehicle: saline with Tween-80): 105 % of control

O=C(O)Cc1ccc(N2N=C(c3ccccc3)CC2=O)cc1
T/C [1]: 98 % of control
T/C [2]: 92 % of control

CC(C)(C(=O)O)c1ccc(C(=O)O)c(Br)c1
T/C [3]: 91 % of control
T/C [4]: 93 % of control
T/C [5]: 101 % of control

O=S(=O)(Nc1ccccc1)c1ccc(C2CC3(Cl)C(Cl)=C(Cl)C2(Cl)C3(Cl)Cl)cc1 (centres undefined)
T/C (dose: 100.0 mg/kg/injection, schedule: Q01DX009 (ip), vehicle: saline sonified): 90 % of control
T/C (dose: 200.0 mg/kg/injection, schedule: Q01DX009 (ip), vehicle: saline sonified): 90 % of control
T/C (dose: 400.0 mg/kg/injection, schedule: Q01DX009 (ip), vehicle: saline sonified): 90 % of control

Cc1ccccc1NP1(=O)OCCCN1Cc1ccc(Cl)c(Cl)c1 (centres undefined)
T/C [6]: 100 % of control
T/C [7]: 98 % of control
T/C [8]: 93 % of control

CO[C@H]1/C=C/O[C@@]2(C)Oc3c(C)c(O)c4c(O)c(c(/C=N/N5CCN(C)CC5)c(O)c4c3C2=O)NC(=O)/C(C)=C\C=C\[C@H](C)[C@H](O)[C@@H](C)[C@@H](O)[C@@H](C)[C@H](OC(C)=O)[C@@H]1C
T/C (dose: 25.0 mg/kg/injection, schedule: Q01DX009 (ip), vehicle: other): 92 % of control
T/C [9]: 100 % of control
T/C (dose: 25.0 mg/kg/injection, schedule: Q04DX003 (ip), vehicle: distilled water + Tween-80): 106 % of control
T/C (dose: 25.0 mg/kg/injection, schedule: Q04DX003 (ip), vehicle: other): 99 % of control and 97 % of control
T/C (dose: 50.0 mg/kg/injection, schedule: Q01DX009 (ip), vehicle: other): 98 % of control
T/C [3]: 100 % of control
T/C (dose: 50.0 mg/kg/injection, schedule: Q04DX003 (ip), vehicle: distilled water + Tween-80): 105 % of control and 110 % of control
T/C (dose: 50.0 mg/kg/injection, schedule: Q04DX003 (ip), vehicle: other): 106 % of control and 109 % of control
T/C (dose: 100.0 mg/kg/injection, schedule: Q01DX009 (ip), vehicle: other): 89 % of control
T/C [4]: 100 % of control
T/C (dose: 100.0 mg/kg/injection, schedule: Q04DX003 (ip), vehicle: distilled water + Tween-80): 96 % of control and 97 % of control
T/C (dose: 100.0 mg/kg/injection, schedule: Q04DX003 (ip), vehicle: other): 107 % of control and 115 % of control
T/C (dose: 100.0 mg/kg/injection, schedule: Q04DX003 (ip), vehicle: saline sonified): 95 % of control
T/C (dose: 200.0 mg/kg/injection, schedule: Q01DX009 (ip), vehicle: other): 107 % of control
T/C (dose: 200.0 mg/kg/injection, schedule: Q04DX003 (ip), vehicle: distilled water + Tween-80): 106 % of control
T/C (dose: 200.0 mg/kg/injection, schedule: Q04DX003 (ip), vehicle: other): 110 % of control
T/C (dose: 200.0 mg/kg/injection, schedule: Q04DX003 (ip), vehicle: saline sonified): 104 % of control
T/C (dose: 400.0 mg/kg/injection, schedule: Q04DX003 (ip), vehicle: distilled water + Tween-80): 103 % of control
T/C (dose: 400.0 mg/kg/injection, schedule: Q04DX003 (ip), vehicle: saline sonified): 109 % of control

O=C(OCCO)c1c(Cl)c(Cl)c(Cl)c(Cl)c1-c1c2cc(Br)c(=O)c(Br)c-2oc2c(Br)c(O)c(Br)cc12
T/C (dose: 60.0 mg/kg/injection, schedule: Q01DX005 (ip), vehicle: saline): 94 % of control
T/C (dose: 120.0 mg/kg/injection, schedule: Q01DX005 (ip), vehicle: saline): 92 % of control

CC(=O)c1oc(C)nc1C
T/C (dose: 50.0 mg/kg/injection, schedule: Q01DX009 (ip), vehicle: saline): 104 % of control
T/C (dose: 100.0 mg/kg/injection, schedule: Q01DX009 (ip), vehicle: saline): 100 % of control
T/C (dose: 200.0 mg/kg/injection, schedule: Q01DX009 (ip), vehicle: saline): 104 % of control

CC1C(=O)OC2C1CCC1(C)CC(Br)C(=O)C(C)C21 (centres undefined)
T/C (dose: 100.0 mg/kg/injection, schedule: Q04DX002 (ip), vehicle: saline with Tween-80): 102 % of control
T/C (dose: 200.0 mg/kg/injection, schedule: Q04DX002 (ip), vehicle: saline with Tween-80): 102 % of control and 100 % of control
T/C (dose: 400.0 mg/kg/injection, schedule: Q04DX002 (ip), vehicle: saline with Tween-80): 104 % of control and 101 % of control

O=[N+]([O-])c1ccc(Sc2c3ccccc3nc3ccccc23)cn1
T/C (dose: 25.0 mg/kg/injection, schedule: Q01DX005 (ip), vehicle: saline with Tween-80): 104 % of control
T/C [6]: 109 % of control
T/C [7]: 104 % of control
T/C [8]: 101 % of control

CN(C)CCC1c2ccc(Cl)cc2CCc2cccnc21 (centres undefined) (tested in a mixture with another compound)
T/C (dose: 50.0 mg/kg/injection, schedule: Q01DX005 (ip), vehicle: saline): 107 % of control
T/C (dose: 100.0 mg/kg/injection, schedule: Q01DX005 (ip), vehicle: saline): 99 % of control

c1ccc2c(-c3nc4ccccc4c4ccccc34)cccc2c1
T/C [6]: 108 % of control
T/C [7]: 108 % of control
T/C [8]: 95 % of control

CC(=O)OCc1c(Cl)nc2sccn12
T/C (dose: 100.0 mg/kg/injection, schedule: Q01DX001 (ip), vehicle: Klucel (hydroxypropylcellulose) (HPC)): 104 % of control and 108 % of control
T/C (dose: 200.0 mg/kg/injection, schedule: Q01DX001 (ip), vehicle: Klucel (hydroxypropylcellulose) (HPC)): 109 % of control and 117 % of control

COC(=O)c1cccc2c(N)c(N)cc(C(=O)OC)c12
T/C [1]: 100 % of control
T/C [2]: 104 % of control
T/C (dose: 240.0 mg/kg/injection, schedule: Q01DX005 (ip), vehicle: saline with Tween-80): 106 % of control

OCCNc1ncnc2cc(Cl)ccc12
T/C (dose: 25.0 mg/kg/injection, schedule: Q01DX005 (ip), vehicle: Klucel (hydroxypropylcellulose) (HPC)): 98 % of control
T/C (dose: 50.0 mg/kg/injection, schedule: Q01DX005 (ip), vehicle: Klucel (hydroxypropylcellulose) (HPC)): 95 % of control
T/C (dose: 100.0 mg/kg/injection, schedule: Q01DX005 (ip), vehicle: Klucel (hydroxypropylcellulose) (HPC)): 105 % of control
T/C (dose: 200.0 mg/kg/injection, schedule: Q01DX005 (ip), vehicle: Klucel (hydroxypropylcellulose) (HPC)): 98 % of control

CC(C)=CCc1c2c(c(O)c3c(=O)c(-c4ccc(O)cc4O)coc13)C=CC(C)(C)O2
T/C [9]: 104 % of control
T/C [3]: 102 % of control
T/C [4]: 104 % of control
T/C [5]: 99 % of control
